The conditions of data set [1]: not dose-dependent; cited from earlier work.
For data set [2], the system named is collagen-induced platelet aggregation. The conditions noted are these: prior-art compound, cited from earlier work.
Data set [3] shares this test system. The experiment in a line: Platelet aggregation-inhibiting action (collagen-induced aggregation of human platelet rich plasma). The data set is classed as cell-based. The following applies: human PRP, read-out: Inhibition of collagen-induced platelet aggregation, IC50. The procedure:
Human blood was collected in the presence of 3.13% sodium citrate as an anticoagulant in a volume 1/10 the blood volume. The collected blood was centrifuged at 180 g for 10 minutes so as to separate the upper layer; i.e., platelet rich plasma (PRP) from the blood. The remaining lower layer was further centrifuged at 1600 g for 10 minutes, and platelet poor plasma (PPP); i.e., the thus-obtained upper layer, was collected. A solution (1 μL) of the inventive compound was added to PRP (200 μL), and the mixture was allowed to stand at 37° C. for 2 minutes. Subsequently, collagen (2 μL) was added to the resultant mixture so as to induce platelet aggregation. Percent platelet aggregation was measured by means of PAM-12C(SSR Engineering). Optical transmittance of PPP was employed as the value reflecting the state in which 100% coagulation occurred. Percent platelet aggregation values of PRP were determined at a series of concentrations of each Example compound. From the determined values, IC50 with respect to each compound was calculated.

A further data set deals with T1, cyclooxygenase-2 (COX-2) (Homo sapiens, UniProt P35354).
T1 construct: purchased Cayman Chemical Company 560101 and 560121
T1 sequence (P35354 18-604): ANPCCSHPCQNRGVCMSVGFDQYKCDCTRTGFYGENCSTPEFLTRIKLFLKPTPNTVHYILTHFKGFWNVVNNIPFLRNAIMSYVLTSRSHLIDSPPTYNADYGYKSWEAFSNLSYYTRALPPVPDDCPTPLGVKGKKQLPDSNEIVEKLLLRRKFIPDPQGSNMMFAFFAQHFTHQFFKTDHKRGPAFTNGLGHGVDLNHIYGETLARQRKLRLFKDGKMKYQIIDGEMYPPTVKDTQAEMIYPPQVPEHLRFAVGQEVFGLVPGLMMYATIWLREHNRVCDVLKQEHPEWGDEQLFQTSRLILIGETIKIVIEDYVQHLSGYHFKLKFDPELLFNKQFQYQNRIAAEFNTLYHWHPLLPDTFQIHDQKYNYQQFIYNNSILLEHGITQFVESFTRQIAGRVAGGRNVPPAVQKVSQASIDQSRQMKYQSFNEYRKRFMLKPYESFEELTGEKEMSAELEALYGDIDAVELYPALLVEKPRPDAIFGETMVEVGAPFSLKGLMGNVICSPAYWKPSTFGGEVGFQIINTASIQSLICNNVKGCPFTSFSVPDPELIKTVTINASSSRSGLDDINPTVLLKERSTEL
The experiment in a line: Inhibitory effect on COX-2 (COX Inhibitor Screening Assay Kit, PGF2α ELISA). Type of data set: biochemical. The conditions noted are these: 50 μM compound. The procedure:
(§1) Inhibitory activity against COX-1 and COX-2 of the compounds produced in the Examples was measured using a COX Inhibitor Screening Assay Kit (product of Cayman Chemical Company, Catalog Nos. 560101 and 560121).
(§2) Before starting the measurement, reaction buffer, heme, arachidonic acid, SnCl2, EIA buffer, washing buffer, prostaglandin (PG) screening EIA standard, PG screening acetylcholine esterase (AchE), tracer (chromogenic enzyme […] conjugate), and PG screening EIA antiserum were prepared ready for use.
(§3) (1) Production of PGF2α in the Presence of COX-1 or COX-2
(§4) A reaction mixture containing the compound of the Examples (50 μM) and COX-1 or COX-2 was incubated at 37° C. for 10 minutes. Arachidonic acid (10 μL) was added thereto, and the resultant mixture was further incubated at 37° C. for 2 minutes. 1N-Hydrochloric acid (50 μL) was added to the reaction mixture, to thereby stop the reaction. SnCl2 solution (100 μL) was added thereto, and the resultant mixture was kept at room temperature for 5 minutes.
(§5) (2) Quantitative Determination of PGF2α through ELISA
(§6) Antiserum (rabbit anti-PGF2αantibody, 50 μL) was added to the wells of 96 well plate that had been coated with mouse anti-rabbit IgG. A solution of PGF2α-containing mixture obtained above (2000-fold dilution, 50 μL) and AchE tracer (50 μL) were added to the well in this order, and the mixture was incubated at room temperature for 18 hours. The wells were washed 5 times with the washing buffer to remove an excessive AchE tracer, and Ellman reagent (200 μL) was added. After keeping the plate in a dark room for 60 minutes, absorbance at 405 nm was measured.
(§7) (3) Calculation of Inhibitory Activity of the Compound of the Examples
(§8) A calibration curve was obtained by use of the PG screening EIA standard, and the production amount of PGF2α was determined from the absorbance. Percent inhibition of COX-1 or COX-2 activity at 50 μM of the compound of the Examples was calculated.
On the technique in general: ELISA stands for enzyme-linked immunosorbent assay.

The target in another data set is T2, cyclooxygenase-1 (COX-1) (Ovis aries, UniProt P05979).
T2 construct: purchased Cayman Chemical Company 560101 and 560121
T2 sequence (P05979 25-600): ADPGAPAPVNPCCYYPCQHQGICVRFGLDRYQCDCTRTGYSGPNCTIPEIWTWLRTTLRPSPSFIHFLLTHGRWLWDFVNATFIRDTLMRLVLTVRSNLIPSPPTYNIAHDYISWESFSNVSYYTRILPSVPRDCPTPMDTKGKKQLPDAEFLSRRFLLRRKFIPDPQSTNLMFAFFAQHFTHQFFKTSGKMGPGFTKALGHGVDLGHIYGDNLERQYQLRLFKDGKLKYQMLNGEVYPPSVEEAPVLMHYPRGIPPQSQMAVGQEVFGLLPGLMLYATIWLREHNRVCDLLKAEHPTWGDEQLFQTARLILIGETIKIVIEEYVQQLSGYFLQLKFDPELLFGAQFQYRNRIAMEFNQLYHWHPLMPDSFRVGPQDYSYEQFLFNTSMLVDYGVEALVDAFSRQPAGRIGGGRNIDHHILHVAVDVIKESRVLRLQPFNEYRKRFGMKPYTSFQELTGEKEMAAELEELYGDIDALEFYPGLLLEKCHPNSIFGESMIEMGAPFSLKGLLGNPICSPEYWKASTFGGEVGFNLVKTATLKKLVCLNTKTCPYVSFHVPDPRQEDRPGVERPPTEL
The experiment in a line: Inhibitory effect on COX-1 (COX Inhibitor Screening Assay Kit, PGF2α ELISA). Type of data set: biochemical. The following applies: 50 μM compound. The procedure: as §1, §2, §3, §4, §5, §6, §7, §8

The values that follow come from patent publication US7622471B2, “Pyrazole derivatives having a pyridazine and pyridine functionality” (Daiichi Pharmaceutical Co., Ltd., priority 2003, dated 2009).

Read-outs that look alike come from different tables or passages of the source.

Turning to `CC(=O)Oc1ccccc1C(=O)O` [Aspirin], in data set [1], the “rate of side effects such as hemorrhage in gastrointestine (aspirin-induced ulcer)” value is “about 1 per 100 patients”.
For the compound `CS(=O)(=O)c1ccc(-c2cc(C#N)nn2-c2ccc(F)cc2)cc1` [Compound (A)], the IC50 in data set [2] (read-out: IC50 value against collagen-induced platelet aggregation) is 5300 nM.
As for `COc1ccc(-n2nc(C(=O)N3CCN(C)C(=O)C3)cc2-c2ccccn2)cn1` [Example 23, 1-[1-(6-Methoxy-3-pyridyl)-5 (2-pyridyl)pyrazole-3-carbonyl]-4-methyl-3-oxopiperazine], in data set [3], the IC50 came out at 170 nM. Further, on cyclooxygenase-2 (COX-2), the “Inhibitory effect against COX-2 at 50 μM (% inhibition)” value was 3.4 % inhibition. The “Inhibitory effect against COX-1 at 50 μM (% inhibition)” value at cyclooxygenase-1 (COX-1) is recorded as −1.2 % inhibition.
As to `COc1ccnc(-c2cc(C(=O)N3CCN(C)CC3)nn2-c2ccc(OC)nc2)c1` [Example 27, 1-[1-(6-Methoxy-3-pyridyl)-5-(4-methoxy-2-pyridyl)pyrazole-3-carbonyl]-4-methylpiperazine], in data set [3], the IC50 is 270 nM. The “Inhibitory effect against COX-2 at 50 μM (% inhibition)” value at cyclooxygenase-2 (COX-2) was −0.1 % inhibition. Also, the “Inhibitory effect against COX-1 at 50 μM (% inhibition)” value at cyclooxygenase-1 (COX-1) was 0.5 % inhibition.
Take `COc1ccc(-n2nc(C(=O)N3CCOCC3)cc2-c2ccccn2)cn1` [Example 36, 4-[1-(6-Methoxy-3-pyridyl)-5-(2-pyridyl)pyrazole-3-carbonyl]morpholine]: the IC50 in data set [3] was 140 nM.
Turning to `COc1ccc(-n2nc(C(=O)N3CCN(C4CC4)CC3)cc2-c2ccccn2)cn1` [Example 55, 1-[1-(6-Methoxy-3-pyridyl)-5-(2-pyridyl)pyrazole-3-carbonyl]-4-cyclopropylpiperazine], the IC50 in data set [3] is 35 nM.
On to `COc1ccc(-n2nc(C(=O)N3CCN(C)CC3)cc2-c2ccccc2)cn1` [Example 62, 1-[1-(6-Methoxy-3-pyridyl)-5-phenylpyrazole-3-carbonyl]-4-methylpiperazine], for which the half-inhibitory concentration (IC50) in data set [3] was determined as 120 nM. In addition, on cyclooxygenase-2 (COX-2), the “Inhibitory effect against COX-2 at 50 μM (% inhibition)” value is on record as −2.6 % inhibition. Further, at cyclooxygenase-1 (COX-1), the “Inhibitory effect against COX-1 at 50 μM (% inhibition)” value was −2.4 % inhibition.
As to `COc1ccc(-n2nc(C(=O)N3CC(N(C)C)C3)cc2-c2ccccc2)cn1` [Example 70, 1-[1-(6-Methoxy-3-pyridyl)-5-phenylpyrazole-3-carbonyl]-3-dimethylaminoazetidine], the half-inhibitory concentration (IC50) in data set [3] came out at 260 nM.
Take `COc1ccc(-n2nc(C(=O)N3CCCCC3)cc2-c2ccccn2)nn1` [Example 122, 1-[1-(6-Methoxy-3-pyridazinyl)-5-(2-pyridyl)pyrazole-3-carbonyl] piperidine]: the 50% inhibitory concentration (IC50) in data set [3] was 750 nM. Also, the “Inhibitory effect against COX-2 at 50 μM (% inhibition)” value at cyclooxygenase-2 (COX-2) came out at 4.5 % inhibition. The “Inhibitory effect against COX-1 at 50 μM (% inhibition)” value at cyclooxygenase-1 (COX-1) amounted to 1 % inhibition.
The corresponding values for `COc1ccc(-n2nc(C(=O)N3CCN(C)CC3)cc2-c2ccccn2)nn1` [Example 132, 1-[1-(6-Methoxy-3-pyridazinyl)-5-(2-pyridyl)pyrazole-3-carbonyl]-4-methylpiperazine] are 400 nM, 10.5 % inhibition and 2.7 % inhibition.
With `COc1ccc(-n2nc(C(=O)N3CCC(F)(F)CC3)cc2-c2ccccn2)nn1` [Example 139, 1-[1-(6-Methoxy-3-pyridazinyl)-5-(2-pyridyl)pyrazole-3-carbonyl]-4,4-difluoropiperidine], the half-inhibitory concentration (IC50) in data set [3] was 42 nM. Further, the “Inhibitory effect against COX-2 at 50 μM (% inhibition)” value at cyclooxygenase-2 (COX-2) turned out to be 3.4 % inhibition. Besides, the “Inhibitory effect against COX-1 at 50 μM (% inhibition)” value at cyclooxygenase-1 (COX-1) was 7.6 % inhibition.
Regarding `COc1ccc(-n2nc(C(=O)N3CCCC(F)(F)C3)cc2-c2ccccn2)nn1` [Example 140, 1-[1-(6-Methoxy-3-pyridazinyl)-5-(2-pyridyl)pyrazole-3-carbonyl]-3,3-difluoropiperidine], the IC50 in data set [3] worked out at 110 nM.
As for `COc1cnc(-n2nc(C(=O)N3CCN(C)CC3)cc2-c2ccccn2)cn1` [Example 144, 1-[1-(5-Methoxy-2-pyrazinyl)-5-(2-pyridyl)pyrazole-3-carbonyl]-4-methylpiperazine], the 50% inhibitory concentration (IC50) in data set [3] came out at 440 nM. For the same compound, the “Inhibitory effect against COX-2 at 50 μM (% inhibition)” value on cyclooxygenase-2 (COX-2) is recorded as 8.8 % inhibition. Further, the “Inhibitory effect against COX-1 at 50 μM (% inhibition)” value on cyclooxygenase-1 (COX-1) was 9.7 % inhibition.
`COc1ccc(-n2nc(C(=O)N3CCN(C)CC3)cc2-c2cnccn2)cn1` [Example 148, 1-[1-(6-Methoxy-3-pyridyl)-5-(2-pyrazinyl)pyrazole-3-carbonyl]-4-methylpiperazine]: in data set [3], the IC50 was determined as 90 nM.
In the case of `COc1ccc(-n2nc(C(=O)N3CCCOCC3)cc2-c2ccccn2)cn1` [Example 160, 4-[1-(6-Methoxy-3-pyridyl)-5-(2-pyridyl)pyrazole-3-carbonyl]-1,4-oxazepane], the IC50 in data set [3] worked out at 170 nM.
For the compound `COc1ccc(-n2nc(C(=O)N3CCCCN3C(C)=O)cc2-c2ccccn2)cn1` [Example 163, 1-[1-(6-Methoxy-3-pyridyl)-5-(2-pyridyl)pyrazole-3-carbonyl]-2-acetylhexahydropyridazine], the 50% inhibitory concentration (IC50) in data set [3] was 90 nM.
The same measure, in the same setting: to `COc1ccc(-n2nc(C(=O)N3CCN(C)CC3)cc2-c2ccc[nH]2)cn1` [Example 167, 1-[1-(6-Methoxy-3-pyridyl)-5-(pyrrol-2-yl)pyrazole-3-carbonyl]-4-methylpiperazine] belongs 29 nM.
Still for that read-out and setting: for `COc1ccc(-n2nc(C(=O)N3CCOCC3)cc2-c2ccc[nH]2)cn1` [Example 168, 4-[1-(6-Methoxy-3-pyridyl)-5-(pyrrol-2-yl)pyrazole-3-carbonyl]morpholine] the value was 17 nM.
`COc1ccc(-c2cc(C(F)F)nn2-c2ccc(S(N)(=O)=O)cc2)cc1F` [compound (B)]: in data set [2] (in words), the “platelet aggregation inhibitory activity compared with inhibitory activity against COX-2” value was “not so potent”.

By IC50 is commonly meant the concentration needed to halve the response being measured.
